Laboratory results reported in patent publication EP0289262A2, “Omega-quaternary ammonium alkyl esters and thioesters of acidic nonsteroidal antiinflammatory drugs” (priority 1987, dated 1988).
Values joined by “and” are separate entries in the source; they are usually repeats but may differ in a detail not shown here. Identical values can stand only once.

Assays:
[1] = system: Intestinal Tract of Rats; experiment: Test for ability to cause gastro-intestinal erosion in rats; assay type: in vivo, Male Lai: COX (SD) rats
Procedure: Male Lai: COX (SD) rats weighing 200-250 gm were acclimated for one week under standard laboratory conditions. Each animal was individually indentified and body weights were determined on the first day of the test and again at autopsy. The test materials, suspended in aqueous carboxymethyl cellulose vehicle, were administered orally once daily in a volume of 1.0ml per 100g body weight for four consecutive days. Food was withdrawn from the animals following the last dose and the animals were sacrificed 24 hours later. At necropsy, the stomach and intestines were removed and observed for lesions. […] The incidence of lesions for each dose level tested is reported.

[2] = system: Adjuvant-Induced Arthritis in the Rat; experiment: Rat adjuvant-induced arthritis assay; assay type: in vivo, Female Crl:CD, br rats; conditions: oral
Procedure: Female Crl:CD, br rats weighting 160-180 gm were randomly distributed to treatment groups of 12 animals, and were given food and water ad libitum. Test materials were prepared fresh weekly as suspensions in aqueous carboxymethyl cellulose. Animals were orally dosed with volumes of 1 ml twice per day Monday through Friday, and with 2 ml once per day on Saturdays and Sundays. At time 0, rats were injected intradermally in the proximal quarter of the tail with 0.1 ml of a mineral oil suspension of heat killed and dried Mycobacterium butyricum (Difco) at a concentration of 10 mg/ml. After sacrifice, the hind paws of each animal were removed and weighed.

[3] = system: Intestinal Ulceration in Rats Induced by the Subcutaneous Administration of Indomethacin; experiment: Protective effect against intestinal ulceration induced by subcutaneous indomethacin; assay type: in vivo, Male Crl:D,br rats; conditions: indomethacin 4 mg/kg/day s.c. for four days, score 0-10, vehicle 5.8 ± 1.8
Procedure: Male Crl:D,br rats weighing approximately 200 gm received indomethacin, 4 mg/kg, injected subcutaneously each day for four consecutive days to induce the formation of erosions and ulcers of the small intestine. Food was removed following the last dose of indomethacin and the rats were necropsied 18-24 hours later. Erosions of small intestine were scored as follows: 0 - no detectable lesions 2 - small ulcerattions (1-15) less than 1 mm 4 - small ulcerations plus 1-10 medium (2-3 mm) ulcerations 6 - predominantly medium ulceratiaons plus 2-5 severe (>4mm) ulcers without evidence of perforation 8 - many (>20) medium and severe ulcerations with evidence of perforation 10 - animals dying during assay as a consequence of intestinal perforation and septicemia.
Agents to be tested for protective effects were administered orally in an aqueous vehicle, with one-half the daily dose being administered 4 hours prior to indomethacin injection and one half the daily dose being administered at the time of indomethacin injection.

[4] = 21-day oral toxicity observation in rats; assay type: in vivo, male Hsd:(SD)BR rats; conditions: orally twice daily for 21 consecutive days, total daily dose 100 mg/Kg
Procedure: Five male Hsd:(SD)BR rats weighing 205-215 g were acclimated for approximately one week prior to use under standard laboratory conditions. Naproxen thiocholine ester iodide, suspended in aqueous carboxymethylcellulose vehicle was administered orally twice daily in a volume of 1.0 ml per 200 g body weight for 21 consecutive days at a total daily dose of 100 mg/Kg.

[5] = daily dose 200 mg/kg orally, four consecutive days, erosions graded 0-10, five rats
[6] = daily dose 300 mg/kg orally, four consecutive days, erosions graded 0-10, five rats, 300 mg/kg
[7] = daily dose 400 mg/kg orally, four consecutive days, erosions graded 0-10, five rats, 400 mg/kg
[8] = daily dose 5 mg/kg orally, four consecutive days, erosions graded 0-10, five rats
[9] = daily dose 25 mg/kg orally, four consecutive days, erosions graded 0-10, five rats

COc1ccc2cc([C@H](C)C(=O)SCC[N+](C)(C)C)ccc2c1 [Naproxen thiocholine ester iodide, NAPROXEN THIOCHOLINE ESTER IODIDE]
Mean Intestinal Ulcer Score ± 1Std. Dev. ([1]; daily dose 150 mg/kg orally, four consecutive days, erosions graded 0-10, five rats): 0 | Mean Intestinal Ulcer Score ± 1Std. Dev. [1, 5]: 0.4 ± 0.9 | Mean Intestinal Ulcer Score ± 1Std. Dev. ([1]; daily dose 250 mg/kg orally, four consecutive days, erosions graded 0-10, five rats): 1.6 ± 1.7 | Mean Intestinal Ulcer Score ± 1Std. Dev. [1, 6]: 3.0 ± 1.7 | Mean Intestinal Ulcer Score ± 1Std. Dev. [1, 7]: 7.2 ± 1.1 | Percent Inhibition of Hind Paw Weight ([2]; daily dose 7.0 mg/kg): 40% | Percent Inhibition of Hind Paw Weight ([2]; daily dose 10 mg/kg): 69% | Percent Inhibition of Hind Paw Weight ([2]; daily dose 14 mg/kg, 14 mg/kg): 40% and 53% | Percent Inhibition of Hind Paw Weight ([2]; daily dose 28 mg/kg, 28 mg/kg): 51% and 75% | Intestinal Erosion Score Mean ± S.D. ([3]; oral dose 5 mg/kg/day): 4.0 ± 2.4 | Intestinal Erosion Score Mean ± S.D. ([3]; oral dose 10 mg/kg/day): 2.4 ± 0.9 | Intestinal Erosion Score Mean ± S.D. ([3]; oral dose 20 mg/kg/day): 1.8 ± 2.4 | Intestinal Erosion Score Mean ± S.D. ([3]; oral dose 50 mg/kg/day): 0.8 ± 1.1 | gross signs of toxicity [4]: did not produce any gross signs of toxicity

COc1ccc2c(c1)c(CC(=O)O)c(C)n2C(=O)c1ccc(Cl)cc1 [Indomethacin, indomethacin, reference compound]
Mean Intestinal Ulcer Score ± 1Std. Dev. [1, 8]: 7.2 ± 1.9 | Percent Inhibition of Hind Paw Weight ([2]; daily dose 2.0 mg/kg): 75%

C[N+](C)(C)CCSC(=O)C1CCn2c(C(=O)c3ccccc3)ccc21 (centres unmarked) [Ketorolac thiocholine ester iodide, ketorolac thiocholine ester iodide]
Mean Intestinal Ulcer Score ± 1Std. Dev. [1, 9]: 2.0 ± 2.0 | Mean Intestinal Ulcer Score ± 1Std. Dev. ([1]; daily dose 50 mg/kg orally, four consecutive days, erosions graded 0-10, five rats): 6.4 ± 0.9 | Mean Intestinal Ulcer Score ± 1Std. Dev. ([1]; daily dose 75 mg/kg orally, four consecutive days, erosions graded 0-10, five rats): 7.2 ± 1.1 | Percent Inhibition of Hind Paw Weight ([2]; daily dose 1.0 mg/kg): 10% | Percent Inhibition of Hind Paw Weight ([2]; daily dose 5.0 mg/kg, 5 mg/kg): 79% and 56%

COc1ccc2c(c1)c(CC(=O)SCC[N+](C)(C)C)c(C)n2C(=O)c1ccc(Cl)cc1 [Indomethacin thiocholine ester iodide, indomethacin thiocholine ester iodide]
Mean Intestinal Ulcer Score ± 1Std. Dev. [1, 9]: 0 | Mean Intestinal Ulcer Score ± 1Std. Dev. ([1]; daily dose 100 mg/kg orally, four consecutive days, erosions graded 0-10, five rats): 0 | Percent Inhibition of Hind Paw Weight ([2]; daily dose 7.0 mg/kg): 15% | Percent Inhibition of Hind Paw Weight ([2]; daily dose 14 mg/kg): 59%

COc1ccc2cc([C@H](C)C(=O)SCC[N+](C)(C)C)ccc2c1 [Naproxen thiocholine ester chloride, naproxen thiocholine ester chloride]
Mean Intestinal Ulcer Score ± 1Std. Dev. [1, 5]: 0.4 ± 0.9 | Mean Intestinal Ulcer Score ± 1Std. Dev. [1, 6]: 1.6 ± 0.9 | Mean Intestinal Ulcer Score ± 1Std. Dev. [1, 7]: 5.6 ± 2.2

O=C(c1ccccc1)c1ccc2n1CCC2C(=O)O (centres unmarked) [Ketorolac, ketorolac, reference compound]
Mean Intestinal Ulcer Score ± 1Std. Dev. [1, 8]: 1.9 ± 0.9 | Mean Intestinal Ulcer Score ± 1Std. Dev. ([1]; rat, in vivo, po, 10 mg/kg): 4.8 ± 1.7 | Mean Intestinal Ulcer Score ± 1Std. Dev. ([1]; rat, in vivo, po, 20 mg/kg): 7.4 ± 1.7 | Percent Inhibition of Hind Paw Weight ([2]; daily dose 0.1 mg/kg): 5% | Percent Inhibition of Hind Paw Weight ([2]; daily dose 0.5 mg/kg): 14% | Percent Inhibition of Hind Paw Weight ([2]; daily dose 2.5 mg/kg): 59%

COc1ccc2cc([C@H](C)C(=O)O)ccc2c1 [Naproxen, 2-(6′-methoxy-2′-naphthyl)propionic acid, reference compound]
Mean Intestinal Ulcer Score ± 1Std. Dev. ([1]; daily dose 20 mg/kg orally, four consecutive days, erosions graded 0-10, five rats): 1.6 ± 0.9 | Mean Intestinal Ulcer Score ± 1Std. Dev. [1, 9]: 3.2 ± 1.1 | Mean Intestinal Ulcer Score ± 1Std. Dev. ([1]; daily dose 30 mg/kg orally, four consecutive days, erosions graded 0-10, five rats): 6.4 ± 1.7 | Mean Intestinal Ulcer Score ± 1Std. Dev. ([1]; daily dose 35 mg/kg orally, four consecutive days, erosions graded 0-10, five rats): 7.6 ± 0.9 | Percent Inhibition of Hind Paw Weight ([2]; daily dose 1.4 mg/kg): 22% | Percent Inhibition of Hind Paw Weight ([2]; daily dose 3.5 mg/kg): 70% | Percent Inhibition of Hind Paw Weight ([2]; daily dose 7.0 mg/kg): 77%
